Reference: patent publication US9724357B2, “Methods for preserving photoreceptor cell viability following retinal detachment” (Massachusetts Eye & Ear Infirmary, priority 2011, dated 2017)

Legend:
Format in all cases: in vivo, Brown Norway rats
caspase 8 = experiment: Caspase 8 colorimetric activity assay in retinal lysates after retinal detachment; conditions: retinal lysates 24 hours after retinal detachment; 500 mg/kg/day i.p.
Source text: (§1) In the examples described herein, all animal experiments adhered to the Association for Research in Vision and Ophthalmology Statement for the Use of Animals in Ophthalmic and Vision Research, and protocols were approved by the Animal Care Committee of the Massachusetts Eye and Ear Infirmary. Adult male Brown Norway rats (200 to 300 g) were purchased from Charles River Laboratories (Wilmington, Mass.). The rats were fed standard laboratory chow and allowed free access to water in an air-conditioned room with a 12 hour light/12 hour dark cycle.
(§2) Experimental retinal detachment was induced by subretinal injection of hyaluronic acid as previously described (Hisatomi T et al. (2001) AM. J. PATHOL. 158:1271-1278). Briefly, rats were anesthetized with 100 μl of a mixture of 5 parts Ketamine (100 mg/ml, Phoenix Pharmaceutical, Inc., St Joseph, Mo.), 4 parts PBS and 1 part Xylazine (100 mg/ml, Lloyd Laboratories, Inc., Shenandoah, Iowa). Body temperature was monitored and the animals were kept on a heating pad during the procedure as well as during the recovery period. […]
(§3) The caspase assays were performed on the retina of animals without retinal detachment (n=6) as well as animals with retinal detachment that received vehicle (n=8) or TUDCA (n=8). […] Optical density was assessed at 405 nm and normalized for protein concentration, initial optical density, and compared to a sample filled with buffer. […]

MCP-1 = MCP-1 ELISA on retinal lysates after retinal detachment; conditions: samples 24 and 72 hours after retinal detachment (FIG. 2B: one day); 500 mg/kg/day i.p.; vs vehicle
Source text: as §1
as §2, with “period. The pupils were dilated with drops of phenylephrine 5%/tropicamide 0.5%.” for “period.”
(§4) In order to measure inflammatory cytokines, eight eyes from each group (animals without retinal detachment as well as animals with retinal detachment that received vehicle or TUDCA) were analyzed using ELISA assays. […]

caspase 2 = experiment: Caspase 2 colorimetric activity assay in retinal lysates after retinal detachment; conditions: retinal lysates 24 hours after retinal detachment; 500 mg/kg/day i.p.; P<0.05
Source text: as §1, §2, §3

[1] = test system: photoreceptor cells of detached retina (outer nuclear layer); experiment: TUNEL staining of photoreceptor death after experimental retinal detachment; conditions: administration started six hours after induction of retinal detachment; P=0.03; readout not given
Source text: as §1
(§5) Experimental retinal detachment was induced by subretinal injection of hyaluronic acid as previously described (Hisatomi T et al. (2001) AM. J. PATHOL. 158:1271-1278). […] Body temperature was monitored and the animals were kept on a heating pad during the procedure as well as during the recovery period. […]
(§6) All values disclosed below were expressed as the mean±SD. Statistical differences between two groups were analyzed by Mann-Whitney U test. […]
Photoreceptor death was assessed by TUNEL staining, which detects DNA fragmentation in apoptotic or necrotic nuclei. […] Fluorescence was imaged using a DM RXA microscope (Leica, Solms Germany) and digitally captured. The number of TUNEL-positive cells per mm^2 at the central area of the detached retina was counted in a masked fashion. […]

TNF-α = TNF-α ELISA on retinal lysates after retinal detachment; conditions: 24 hours after retinal detachment; 500 mg/kg/day i.p.; vs vehicle
Source text: as §1
as §2, with “period. The pupils were dilated with drops of phenylephrine 5%/tropicamide 0.5%.” for “period.”
as §4

CD68+ cells = experiment: Macrophage infiltration (CD68+ immunostaining) in detached retina; conditions: one day after induction of retinal detachment; 500 mg/kg/day i.p.; vs vehicle
Source text: as §1, §2
In order to assess macrophage infiltration in detached retinas, six eyes from each group (rats treated with vehicle or TUDCA) were analyzed. […] The number of CD68+ cells per […] was determined using the same method as described above for the quantification of TUNEL-positive cells.

protein carbonyl content = experiment: Protein carbonyl content ELISA (oxidative stress) in retina after retinal detachment; conditions: one day (24 hours) after retinal detachment; 500 mg/kg/day i.p.; vs vehicle
Source text: as §1, §2
In order to assess the effect of TUDCA treatment on oxidative stress, the protein carbonyl content in the retina was determined Eight eyes from each group (animals without retinal detachment as well as animals with retinal detachment that received vehicle or TUDCA) were analyzed using ELISA assays. […]

caspase 3 = experiment: Caspase 3 colorimetric activity assay in retinal lysates after retinal detachment; conditions: retinal lysates 24 hours after retinal detachment; 500 mg/kg/day i.p.; P<0.05
Source text: as §1, §2, §3

caspase 11 = experiment: Caspase 11 western blot of vitreous and neural retina after retinal detachment; conditions: samples three days after retinal detachment, 500 mg/kg/day i.p.
[2] = test system: photoreceptor cells of detached retina (outer nuclear layer); experiment: Outer nuclear layer (ONL) thickness after experimental retinal detachment; conditions: 500 mg/kg/day i.p., mean±SD
Source text: as §1, §5, §6
Photoreceptor loss was evaluated by measuring the thickness of the outer nuclear layer (ONL). ONL thickness was determined using National Institutes of Health ImageJ software. Thickness was measured based on the outer boundaries of the DAPI nuclear stain. […]

caspase 9 = experiment: Caspase 9 colorimetric activity assay in retinal lysates after retinal detachment; conditions: retinal lysates 24 hours after retinal detachment; 500 mg/kg/day i.p.; P<0.05
Source text: as §1, §2, §3

CHOP = CHOP western blot (ER stress) of vitreous and neural retina after retinal detachment; conditions: three days after retinal detachment, systemic administration 500 mg/kg/day i.p.
Source text: as §1
as §2, with “period. The pupils were dilated with drops of phenylephrine 5%/tropicamide 0.5%. A partial retinal detachment was induced with a transscleral, subretinal injection of approximately 50 μl of 1% sodium hyaluronate (Provisc, Alcon Laboratories Inc., Fort Worth, Tex.).” for “period.”

effect on activity of caspase 8 (caspase 8): did not alter
effect on retinal detachment-induced activity of caspase 2 (caspase 2): significantly decreased
effect on retinal detachment-induced activity of caspase 3 (caspase 3): significantly decreased
effect on retinal detachment-induced activity of caspase 9 (caspase 9): significantly decreased
SMILES: C[C@H](CCC(=O)NCCS(=O)(=O)O)[C@H]1CC[C@H]2[C@@H]3[C@@H](O)C[C@@H]4C[C@H](O)CC[C@]4(C)[C@H]3CC[C@]12C [TUDCA, tauroursodeoxycholic acid]
effect on levels of MCP-1 (MCP-1): did not affect
neuroprotection with delayed treatment (FIG. 1D) [1]: showed efficient neuroprotection
effect on levels of TNF-α (TNF-α): did not affect
effect on macrophage infiltration (CD68+ cells) (CD68+ cells): did not affect macrophage infiltration
effect on protein carbonyl content (protein carbonyl content): prevented an increase in protein carbonyl content
effect on activity of caspase 11 (caspase 11): did not alter
ONL thickness ratio (normalized, detached/attached retina) ([2]; five days after detachment, vehicle 0.57±0.04, P=0.002): 0.79±0.03
ONL thickness ratio (normalized, detached/attached retina) ([2]; three days of retinal detachment, vehicle 0.65±0.03, P=0.0016): 0.84±0.03
effect on CHOP expression (CHOP): did not significantly alter CHOP expression
